From PubChem BioAssay (NCI)
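Step 1: Grow cells in 96-well plates. Step 2: Expose to compound for 48 hours at 5 concentrations. Step 3: Interpolate endpoints linearly; if unreached, use highest concentration. The concentration for full growth arrest is given as TGI.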

Key:
Test in all cases: growth of human tumour cells (NCI), 48 h
786-0 renal = system: 786-0 renal
A498 renal = system: A498 renal
A549 NSCLC = system: A549 NSCLC
ACHN renal = system: ACHN renal
CAKI-1 renal = system: CAKI-1 renal
CCRF-CEM leukemia = system: CCRF-CEM leukemia
COLO 205 colon = system: COLO 205 colon
DLD-1 colon = system: DLD-1 colon
DMS 114 small cell lung = system: DMS 114 small cell lung
EKVX NSCLC = system: EKVX NSCLC
HCC-2998 colon = system: HCC-2998 colon
HCT-116 colon = system: HCT-116 colon
HCT-15 colon = system: HCT-15 colon
HOP-18 NSCLC = system: HOP-18 NSCLC
HOP-62 NSCLC = system: HOP-62 NSCLC
HOP-92 NSCLC = system: HOP-92 NSCLC
HT29 colon = system: HT29 colon
IGROV1 ovarian = system: IGROV1 ovarian
K-562 leukemia = system: K-562 leukemia
KM12 colon = system: KM12 colon
KM20L2 colon = system: KM20L2 colon
LOX IMVI melanoma = system: LOX IMVI melanoma
LXFL 529 NSCLC = system: LXFL 529 NSCLC
M14 melanoma = system: M14 melanoma
M19-MEL melanoma = system: M19-MEL melanoma
MALME-3M melanoma = system: MALME-3M melanoma
NCI-H226 lung = system: NCI-H226 lung
NCI-H23 lung = system: NCI-H23 lung
NCI-H460 lung = system: NCI-H460 lung
NCI-H522 lung = system: NCI-H522 lung
OVCAR-3 ovarian = system: OVCAR-3 ovarian
OVCAR-4 ovarian = system: OVCAR-4 ovarian
OVCAR-5 ovarian = system: OVCAR-5 ovarian
OVCAR-8 ovarian = system: OVCAR-8 ovarian
RXF 393 renal = system: RXF 393 renal
SF-268 CNS = system: SF-268 CNS
SF-295 CNS = system: SF-295 CNS
SF-539 CNS = system: SF-539 CNS
SK-MEL-28 melanoma = system: SK-MEL-28 melanoma
SK-MEL-5 melanoma = system: SK-MEL-5 melanoma
SK-OV-3 ovarian = system: SK-OV-3 ovarian
SN12C renal = system: SN12C renal
SNB-19 CNS = system: SNB-19 CNS
SNB-75 CNS = system: SNB-75 CNS
SNB-78 CNS = system: SNB-78 CNS
SW-620 colon = system: SW-620 colon
TK-10 renal = system: TK-10 renal
U251 CNS = system: U251 CNS
UACC-257 melanoma = system: UACC-257 melanoma
UACC-62 melanoma = system: UACC-62 melanoma
UO-31 renal = system: UO-31 renal
XF 498 CNS = system: XF 498 CNS
DMS 273 small cell lung = system: DMS 273 small cell lung
MOLT-4 leukemia = system: MOLT-4 leukemia
RPMI-8226 leukemia = system: RPMI-8226 leukemia
SK-MEL-2 melanoma = system: SK-MEL-2 melanoma
SR leukemia = system: SR leukemia
BT-549 breast = system: BT-549 breast
DU-145 prostate = system: DU-145 prostate
HL-60(TB) leukemia = system: HL-60(TB) leukemia
HS 578T breast = system: HS 578T breast
MCF7 breast = system: MCF7 breast
MDA-MB-231 breast = system: MDA-MB-231 breast
MDA-MB-435 = system: MDA-MB-435
MDA-N = system: MDA-N
NCI/ADR-RES ovarian = system: NCI/ADR-RES ovarian
PC-3 prostate = system: PC-3 prostate
T-47D breast = system: T-47D breast

Nn1c(NNC(=O)C(=O)Nc2cc(Cl)c(Cl)cc2Cl)n[nH]c1=S
TGI (786-0 renal): > 100 µM | TGI (A498 renal): > 100 µM | TGI (A549 NSCLC): > 100 µM | TGI (ACHN renal): > 100 µM | TGI (CAKI-1 renal): > 100 µM | TGI (CCRF-CEM leukemia): > 100 µM | TGI (COLO 205 colon): > 100 µM | TGI (DLD-1 colon): > 100 µM | TGI (DMS 114 small cell lung): > 100 µM | TGI (EKVX NSCLC): > 100 µM | TGI (HCC-2998 colon): > 100 µM | TGI (HCT-116 colon): > 100 µM | TGI (HCT-15 colon): > 100 µM | TGI (HOP-18 NSCLC): > 100 µM | TGI (HOP-62 NSCLC): > 100 µM | TGI (HOP-92 NSCLC): > 100 µM | TGI (HT29 colon): > 100 µM | TGI (IGROV1 ovarian): > 100 µM | TGI (K-562 leukemia): > 100 µM | TGI (KM12 colon): > 100 µM | TGI (KM20L2 colon): > 100 µM | TGI (LOX IMVI melanoma): > 100 µM | TGI (LXFL 529 NSCLC): > 100 µM | TGI (M14 melanoma): > 100 µM | TGI (M19-MEL melanoma): > 100 µM | TGI (MALME-3M melanoma): > 100 µM | TGI (NCI-H226 lung): > 100 µM | TGI (NCI-H23 lung): > 100 µM | TGI (NCI-H460 lung): > 100 µM | TGI (NCI-H522 lung): > 100 µM | TGI (OVCAR-3 ovarian): > 100 µM | TGI (OVCAR-4 ovarian): > 100 µM | TGI (OVCAR-5 ovarian): > 100 µM | TGI (OVCAR-8 ovarian): > 100 µM | TGI (RXF 393 renal): > 100 µM | TGI (SF-268 CNS): > 100 µM | TGI (SF-295 CNS): > 100 µM | TGI (SF-539 CNS): > 100 µM | TGI (SK-MEL-28 melanoma): > 100 µM | TGI (SK-MEL-5 melanoma): > 100 µM | TGI (SK-OV-3 ovarian): > 100 µM | TGI (SN12C renal): > 100 µM | TGI (SNB-19 CNS): > 100 µM | TGI (SNB-75 CNS): > 100 µM | TGI (SNB-78 CNS): > 100 µM | TGI (SW-620 colon): > 100 µM | TGI (TK-10 renal): > 100 µM | TGI (U251 CNS): > 100 µM | TGI (UACC-257 melanoma): > 100 µM | TGI (UACC-62 melanoma): > 100 µM | TGI (UO-31 renal): > 100 µM | TGI (XF 498 CNS): > 100 µM

CCOC(=O)c1nc2ccc(Cl)cc2c2c1Cc1ccccc1-2
TGI (786-0 renal): > 100 µM | TGI (A549 NSCLC): > 100 µM | TGI (ACHN renal): > 100 µM | TGI (CAKI-1 renal): > 100 µM | TGI (COLO 205 colon): > 100 µM | TGI (DLD-1 colon): > 100 µM | TGI (DMS 273 small cell lung): > 100 µM | TGI (EKVX NSCLC): > 100 µM | TGI (HCC-2998 colon): > 100 µM | TGI (HCT-116 colon): > 100 µM | TGI (HCT-15 colon): > 100 µM | TGI (HOP-18 NSCLC): > 100 µM | TGI (HOP-62 NSCLC): > 100 µM | TGI (IGROV1 ovarian): > 100 µM | TGI (K-562 leukemia): > 100 µM | TGI (KM12 colon): > 100 µM | TGI (KM20L2 colon): > 100 µM | TGI (LOX IMVI melanoma): > 100 µM | TGI (LXFL 529 NSCLC): > 100 µM | TGI (M14 melanoma): > 100 µM | TGI (M19-MEL melanoma): > 100 µM | TGI (MOLT-4 leukemia): > 100 µM | TGI (NCI-H226 lung): > 100 µM | TGI (NCI-H23 lung): > 100 µM | TGI (NCI-H522 lung): > 100 µM | TGI (OVCAR-3 ovarian): > 100 µM | TGI (OVCAR-4 ovarian): > 100 µM | TGI (OVCAR-5 ovarian): > 100 µM | TGI (OVCAR-8 ovarian): > 100 µM | TGI (RPMI-8226 leukemia): > 100 µM | TGI (RXF 393 renal): > 100 µM | TGI (SF-268 CNS): > 100 µM | TGI (SF-295 CNS): > 100 µM | TGI (SF-539 CNS): > 100 µM | TGI (SK-MEL-2 melanoma): > 100 µM | TGI (SK-MEL-28 melanoma): > 100 µM | TGI (SK-MEL-5 melanoma): > 100 µM | TGI (SN12C renal): > 100 µM | TGI (SNB-19 CNS): > 100 µM | TGI (SNB-75 CNS): > 100 µM | TGI (SNB-78 CNS): > 100 µM | TGI (SR leukemia): > 100 µM | TGI (SW-620 colon): > 100 µM | TGI (TK-10 renal): > 100 µM | TGI (U251 CNS): > 100 µM | TGI (UACC-257 melanoma): > 100 µM | TGI (UACC-62 melanoma): > 100 µM | TGI (UO-31 renal): > 100 µM | TGI (XF 498 CNS): > 100 µM

CCCC(=O)OC1C(C(O)CO)OC2OC(C)(C)OC21 (stereo not drawn)
TGI (786-0 renal): > 100 µM | TGI (A498 renal): > 100 µM | TGI (A549 NSCLC): > 100 µM | TGI (ACHN renal): > 100 µM | TGI (BT-549 breast): > 100 µM | TGI (CAKI-1 renal): > 100 µM | TGI (CCRF-CEM leukemia): < 3.16 µM | TGI (COLO 205 colon): > 100 µM | TGI (DLD-1 colon): > 100 µM | TGI (DMS 114 small cell lung): > 100 µM | TGI (DMS 273 small cell lung): > 100 µM | TGI (DU-145 prostate): > 100 µM | TGI (EKVX NSCLC): > 100 µM | TGI (HCC-2998 colon): > 100 µM | TGI (HCT-116 colon): > 100 µM | TGI (HCT-15 colon): > 100 µM | TGI (HL-60(TB) leukemia): < 3.16 µM | TGI (HOP-18 NSCLC): > 100 µM | TGI (HOP-62 NSCLC): > 100 µM | TGI (HOP-92 NSCLC): > 100 µM | TGI (HS 578T breast): > 100 µM | TGI (HT29 colon): > 100 µM | TGI (IGROV1 ovarian): > 100 µM | TGI (K-562 leukemia): < 3.16 µM | TGI (KM12 colon): > 100 µM | TGI (KM20L2 colon): > 100 µM | TGI (LOX IMVI melanoma): > 100 µM | TGI (M14 melanoma): > 100 µM | TGI (M19-MEL melanoma): > 100 µM | TGI (MALME-3M melanoma): > 100 µM | TGI (MCF7 breast): > 100 µM | TGI (MDA-MB-231 breast): > 100 µM | TGI (MDA-MB-435): > 100 µM | TGI (MDA-N): > 100 µM | TGI (MOLT-4 leukemia): > 100 µM | TGI (NCI-H226 lung): > 100 µM | TGI (NCI-H23 lung): > 100 µM | TGI (NCI-H460 lung): > 100 µM | TGI (NCI-H522 lung): > 100 µM | TGI (NCI/ADR-RES ovarian): > 100 µM | TGI (OVCAR-3 ovarian): > 100 µM | TGI (OVCAR-4 ovarian): > 100 µM | TGI (OVCAR-5 ovarian): > 100 µM | TGI (OVCAR-8 ovarian): > 100 µM | TGI (PC-3 prostate): > 100 µM | TGI (RPMI-8226 leukemia): > 100 µM | TGI (RXF 393 renal): > 100 µM | TGI (SF-268 CNS): > 100 µM | TGI (SF-295 CNS): > 100 µM | TGI (SF-539 CNS): > 100 µM | TGI (SK-MEL-2 melanoma): > 100 µM | TGI (SK-MEL-28 melanoma): > 100 µM | TGI (SK-MEL-5 melanoma): > 100 µM | TGI (SK-OV-3 ovarian): > 100 µM | TGI (SN12C renal): > 100 µM | TGI (SNB-19 CNS): > 100 µM | TGI (SNB-75 CNS): > 100 µM | TGI (SNB-78 CNS): > 100 µM | TGI (SR leukemia): > 100 µM | TGI (SW-620 colon): > 100 µM | TGI (T-47D breast): > 100 µM | TGI (TK-10 renal): > 100 µM | TGI (U251 CNS): > 100 µM | TGI (UACC-257 melanoma): > 100 µM | TGI (UACC-62 melanoma): > 100 µM | TGI (UO-31 renal): > 100 µM | TGI (XF 498 CNS): > 100 µM
